Results reported in patent US20040198716A1, “Cysteine protease inhimbitors” (priority 2001, published 2004).

Assays:
[1] = target: T1, human recombinant caspase-3 (Homo sapiens, UniProt P42574); assay: In vitro high throughput caspase-3 assay; type: biochemical; details: for Ki: calculated from IC50 according to Equation 1, read-out: Ki(app); for IC50: fixed substrate concentration of 55 μM, inhibitors 75 to 0.067 μM in duplicate; for Percent Activity: percentage of the positive control, 20-250 μM test compound, lower = better inhibition, negative = better than control caspase inhibitor
T1 construct: purchased Sigma
T1 sequence (P42574 29-175 limits assumed): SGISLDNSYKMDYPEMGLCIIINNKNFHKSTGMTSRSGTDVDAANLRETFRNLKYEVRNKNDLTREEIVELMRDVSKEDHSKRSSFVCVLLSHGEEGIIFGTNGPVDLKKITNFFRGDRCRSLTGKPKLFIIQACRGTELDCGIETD
T1 sequence (P42574 176-277 limits assumed): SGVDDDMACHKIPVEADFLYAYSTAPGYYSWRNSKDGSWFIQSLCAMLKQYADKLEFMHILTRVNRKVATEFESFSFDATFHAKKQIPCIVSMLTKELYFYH
Method: Purified Human recombinant caspase-3, fluorescence labeled substrate (Acetyl-Asp-Glu-Val-Asp-7-amino-4-trifluoromethyl coumarin), and known inhibitor (Z-Asp-Glu-Val-Asp-fluoromethyl ketone) can be purchased from Sigma Chemical Co. (St. Louis, Mo.). The enzyme reactions are carried out at room temperature in 10 mM PIPES pH=7.4, 2 mM EDTA, 0.1% CHAPS, 5 mM DTT reaction buffer. Each well on the 96 well plate contains the above reaction buffer plus 55 μM fluorescence labeled substrate, 0.125 μg caspase-3, and 20-250 μM test compound. Positive and negative controls are present on each assay plate. A standard curve is generated using 7-amino-4-trifluoromethyl coumarin in the concentration range from 0.15 μM to 5.0 μM. The reactions are preferably read every 0.5 hours using a fluorescence microtiter plate reader set for 390 nm excitation and 538 nm emission for the first 4 hours after which the plates are left at room temperature overnight. One reading is taken the next morning as a final measurement.
To determine the caspase inhibitory activity of these compounds, the in vitro high throughput caspase-3 assay presented herein was utilized. Purified human recombinant caspase-3, fluorescence labeled substrate (Acetyl-Asp-Glu-Val-Asp-7-amino-4-trifluoromethyl coumarin), and known inhibitor (Z-Asp-Glu-Val-Asp-fluoromethyl ketone) were purchased from Sigma. The enzyme reactions were carried out at room temperature in 10 mM PIPES pH=7.4, 2 mM EDTA, 0.1% CHAPS, 5 mM DTT reaction buffer. Each well on the 96 well plate contained the above reaction buffer plus 55 μM fluorescence labeled substrate, 0.125 μg caspase-3, and 20-250 μM test compound. Positive and negative controls were present on each assay plate. A standard curve was generated using 7-amino-4-trifluoromethyl coumarin in the concentration range from 0.15 μM to 5.0 μM. The reactions were read every 0.5 hours using a fluorescence microtiter plate reader set for 390 nm excitation and 538 nm emission for the first 4 hours after which the plates were left at room temperature overnight. One reading was taken the next morning as a final measurement.
Ki determinations were carried out using the above assay system. […] Ki(app) was calculated according to Equation 1: [formula]
The concentration of inhibitors ranged from 75 to 0.067 μM with each inhibitor concentration assayed in duplicate. The Km for the substrate was determined from a standard Lineweaver-Burke plot.

[2] = target: T2, Human Rhinovirus serotype 1A 3C Protease (Human rhinovirus 1A, UniProt P23008); assay: 3C Protease Biochemical Assay (FRET); details: 30° C., 2-6uM substrate, 416 nM 3CP
T2 construct: used to clone the 3C Protease into the expression vector pET16-b; made in house; host or cells: E. coli BL21-DE3-pLys-S
T2 sequence (P23008 1515-1697): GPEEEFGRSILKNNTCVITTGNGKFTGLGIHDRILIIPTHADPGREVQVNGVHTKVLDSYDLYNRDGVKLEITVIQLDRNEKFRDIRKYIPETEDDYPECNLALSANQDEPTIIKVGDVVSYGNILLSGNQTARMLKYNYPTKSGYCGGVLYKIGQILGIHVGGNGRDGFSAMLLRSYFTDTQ
Method: Human Rhinovirus serotype 1A (ATCC) was used to clone the 3C Protease into the expression vector pET16-b and transformed for production into the E. coli strain BL21-DE3-pLys-S. 3C Protease expression was induced with 1 mM IPTG at 25° C. and purified from the soluble protein extract by chromatography on a SourceQ (Pharmacia) followed by gel filtration. HRV 3CP activity was measured by fluorescence resonance energy transfer using a dimodified decapeptide substrate MOC-[…]DNP-NH2 (7-methoxy coumarin-4-acetic acid fluorochrome and dinitrophenol quencher) with a Km value of 16.8 μM. Inhibition was measured as a change in initial velocity (V0) as a function of inhibitor (I) concentration and substrate (S) concentration. […] Fluorescence was monitored by excitation at 328 nm and emission at 393 nm with 10 nm cutoffs. Data were analyzed with the nonlinear regression analysis program EnzFitter (BioSoft) with the equation:
Ki=(I/((VmaxxS)/V0)/Ks)−I−S
Substrate concentrations used were lower than the Km of the substrate (16.8 uM) so no corrections for an S/Km term were used.

| Ki [1] [µM] | IC50 [1] [µM] | Percent Activity [1] [%] | SMILES | Ki [2] [µM] |
| --- | --- | --- | --- | --- |
| 40.5 | 255 | 54.1256 | O=C(COc1cc(O)c2c(=O)cc(-c3ccccc3)oc2c1)OCc1ccccc1 [cpi0136.0025] |  |
|  |  | −3.264 | COc1ccc2noc3c2c1C(=O)c1ccccc1-3 [cpi0156.0054] |  |
|  |  | 3.338 | O=C(NC1CCCCC1)c1ccc2c3c(onc13)-c1ccccc1C2=O [cpi0156.0045] |  |
| 1.41 | 8.9 | −2.336 | O=C1c2ccccc2C(=O)c2c1cc(S(=O)(=O)O)c(O)c2O [cpi0136.0005] |  |
|  |  | 11.08 | O=C1c2ccccc2-c2onc3ccc(Oc4c(F)c(F)c(F)c(F)c4F)c1c23 [cpi0156.0042] |  |
|  |  | 24.72 | COc1ccc2c(c1OC)C(=O)OC2CC(=O)c1ccc(O)cc1O (stereo not shown) [cpi0156.D1] |  |
|  |  | 22.68 | CC(C)=CCC(O)C1CC(=O)c2c(O)ccc(O)c2C1=O (mixture of isomers) [cpi0138.0001] |  |
| 131 | 825 | 36.41 | Cc1cc(C(=O)NN)c2cc(Br)ccc2n1 [cpi0157.C3] |  |
| 0.0682 | 0.43 | −3.391 | NC(=O)NN=C1C=CC(=O)c2c(O)cccc21 [cpi0136.0004] |  |
|  |  | −0.6303 | CC(=O)OCCNc1cc(Br)c2noc3c2c1C(=O)c1ccccc1-3 [cpi0156.0034] |  |
|  |  | 18.82 | O=C1c2ccccc2-c2onc3c(N4CCCCC4)cc(Nc4ccccc4)c1c23 [cpi0156.0048] |  |
| 0.557 | 3.51 | −0.715 | O=C1C=CC(=NNc2cc([N+](=O)[O-])cc([N+](=O)[O-])c2)c2cccc(O)c21 [cpi0136.0008] |  |
| 9.76 | 61.5 | 1.452 | O=C1C(c2ccc(O)c(O)c2)=C(O)C(=O)c2c(O)cc(O)cc21 [cpi0136.0010] |  |
| 0.503 | 3.17 |  | O=C1C(Br)=C(Br)C(=O)c2c(O)c(Br)c(Br)c(O)c21 [cpi0140] |  |
|  |  | 33.47 | COc1cc(NC2OC(CO)C(O)C(O)C2O)ccc1C (stereo not shown) [cpi0159.C3] |  |
|  |  | 6.782 | CNc1cc(Nc2ccccc2)c2c3c(onc13)-c1ccccc1C2=O [cpi0156.0051] |  |
|  |  | −1.772 | CC(=O)N(Cc1ccccc1)C1=C(Cl)C(=O)c2ccccc2C1=O [cpi0156.0046] |  |

| Ki [1] [µM] | IC50 [1] [µM] | Percent Activity [1] [%] | SMILES | Ki [2] [µM] |
| --- | --- | --- | --- | --- |
| 1.13 | 7.13 | 2.42 | O=C(O)Cc1cc(O)c2c(c1O)C(=O)c1ccccc1C2=O [cpi0136.0011] |  |
| 54.2 | 342 | 36.98 | O=C1C=CC(=NNc2ccc([N+](=O)[O-])cc2[N+](=O)[O-])c2cccc(O)c21 [cpi0136.0020] |  |
|  |  | 45.72 | O=C1c2ccccc2C(=O)c2c(O)ccc(O)c21 [cpi0130] |  |
| 0.0054 | 0.03 |  | O=C(O)C1Cc2c([nH]c3ccccc23)C(c2ccncc2)N1 (stereo not shown) [cpi0190] |  |
| 3.05 | 19.2 | 51.3817 | COc1c(C)c([N+](=O)[O-])c(O)c2c1C(=O)c1ccccc1C2=O [cpi0136.0024] |  |
| 0.762 | 4.8 | −2.295 | O=C1c2ccccc2C(=O)c2c(O)c(O)cc(O)c21 [cpi0136.0006] |  |
| 39.9 | 251 | 31.50 | N#CC1=C(N)SC(N)=C(C#N)C1c1cccc(F)c1 [cpi0157.F9] |  |
| 14.5 | 91 | 19.48 | N#CC1=C(N)NC(SCc2ccccc2)=C(C#N)C12CCCC2 [cpi0157.F10] |  |
|  |  | 28.63 | O=C1c2ccccc2-c2onc3c(N4CCN(c5ccccc5)CC4)ccc1c23 [cpi0156.0047] |  |
| 16.7 | 106 | 24.8 | Cc1ccc2[nH]c3c(cc(O)c4c(=O)c5ccccc5c(=O)c43)oc2c1 [cpi0136.0017] |  |
|  |  | 1.882 | O=C1c2ccccc2-c2onc3ccc(Cl)c1c23 [cpi0156.0056] |  |
|  |  | 30.37 | CC(C)=CCC(O)C1CC(=O)c2c(O)ccc(O)c2C1=O (mixture of isomers) [cpi0138.0002] |  |
| 1.77 | 11.2 | −0.8437 | Nc1ccc(O)c2c1C(=O)c1ccccc1C2=O [cpi0136.0007] |  |
| 52.8 |  | 50.76 | O=C(NN=Cc1ccccc1)C12CC3CC(C1)CC(C(=O)NN=Cc1ccccc1)(C3)C2 [cpi0157.B2] |  |
| 0.807 | 5.09 | −8.938 | O=C(O)c1c(O)c2c(c(O)c1Cl)C(=O)c1ccccc1C2=O [cpi0136.0001] |  |
|  |  | 31.97 | CN(C)c1cc(Nc2ccccc2)c2c3c(onc13)-c1ccccc1C2=O [cpi0156.0052] |  |
|  |  | −1.448 | Cc1cccc(Oc2ccc3noc4c3c2C(=O)c2ccccc2-4)c1 [cpi0156.0055] |  |

| SMILES | Ki [1] [µM] | IC50 [1] [µM] | Percent Activity [1] [%] | Ki [2] [µM] |
| --- | --- | --- | --- | --- |
| O=C1C(Cl)=C(Cl)C(=O)c2ccccc21 [cpi0128] | 1.05 | 6.62 | 1.67 |  |
| O=C1C=CC(=O)c2c(O)cccc21 [cpi0136.0002] | 0.0026 | 0.02 | −6.091 |  |
| O=C1C(Cl)=C(N2CCOCC2)C(=O)c2ccccc21 [cpi0156.0044] |  |  | −1.376 |  |
| O=C1C(Br)=CC(=O)c2c(O)cccc21 [cpi0141] | 4.91 | 30.9 |  | 73 |
| CC1=CC(=O)c2ccccc2C1=O [cpi0127] | 0.694 | 4.37 | 1.32 | 242 |
| O=C1C=CC(=O)c2ccccc21 [cpi0126] | 0.642 | 4.04 | −0.30 | 515 |
| O=C1C(Br)=C(Br)C(=O)c2c1ccc(Br)c2O [cpi0139] | 69.8 | 440 |  | 154 |
